Entries after “also recorded” stand apart in the source; their conditions may differ.
Experiments:
[1] = tested on: 1st passage tumor transplants of CD8F1 spontaneous breast tumors; experiment: Effect of MMPR + 6-AN + PALA on tumor ATP pools in CD8F1 mice; assay type: in vivo; set-up: tumor ATP levels 48 hours after treatment, % of normal (saline-treated control tumors) / 6 HR % Saline Control / 24 HR % Saline Control / 48 HR % Saline Control / 72HR % Saline Control / 6 HW % Saline Control: concentration or dose not given beside the values; conditions: for tumor ATP level, % of normal: murine breast tumors in vivo, time not stated in the sentence
tumor ATP levels = conditions: cited from earlier work
[2] = tested on: patients with disseminated cancer; conditions: cited from earlier work
[3] = tested on: first passage CD8F1 advanced spontaneous breast tumors; experiment: in vivo; conditions: for Regressions/Survivors: partial tumor regressions; for effect on tumor growth / anticancer activity (in words): advanced CD8F1 breast tumors in mice
Source text: (§1) Table 1 evaluates Saline-treated controls (Group 1), 6-AN (Group 2) and DDP (Group 3) as single agents, and in combination (Group 4), against 1st generation subcutaneous solid tumor transplants of advanced CD8F, spontaneous breast tumors. In the same experiment (i.e., same tumor transplants), is a group adding 6-AN to PALA and MMPR (MAP, Group 5), as well as a group with MAP administered prior to DDP (Group 6).
(§2) Each experiment is from a different brei (i.e., each from a different group of 3-4 spontaneous tumors) and, therefore, each transplant group contained a different number of chemotherapeutically sensitive and/or resistant tumor cells.

[4] = tested on: murine breast cancers, colon tumors and leukemia, and human breast cancer xenografts; experiment: MAP plus anticancer agents in advanced tumor-bearing mice with a variety of tumor types; assay type: in vivo; conditions: MAP co-administered with the named anticancer agent
Description: Summary of Preclinical Therapeutic Results with MAP+Cancer Chemotherapy—MAP+each of nine mechanistically-different apoptosis-inducing anticancer agents was administered to advanced tumor-bearing mice with a variety of tumor types (murine breast cancers, colon tumors and leukemia, and human breast cancer xenografts).

[5] = tested on: spontaneous, autochthonous CD8F1 breast tumors; experiment: Therapy of mice bearing spontaneous, autochthonous CD8F1 breast tumors; assay type: in vivo
Source text: Anticancer Effect of MAP Alone in Spontaneous Murine Breast Tumors (Ref. 39)—Table 3 records that MAP produced a partial tumor regression rate of 38% in mice bearing large spontaneous, autochthonous breast tumors. There were 24 partial tumor regressions in 64 surviving mice with acceptable toxicity (4% mortality, 3 deaths in 67 treated mice). Spontaneous regression of these spontaneous breast cancers has never been observed.

in vivo = conditions: CD8F1, mouse, in vivo
Source text: as §1, §2

mouse lymphoma cells = conditions: in vitro; cited from earlier work
[6] = tested on: MDA-MB 468 human breast cancer xenografts; experiment: Taxotere with MAP or MAPAL in MDA-MB-468 human breast cancer xenografts; assay type: in vivo; conditions: pyruvate for 1 day on the 5th day after each ATP-depleting treatment
[7] = tested on: MDA-MB 468 human breast cancer xenografts; experiment: as above; assay type: in vivo; conditions: for PR (partial tumor regression): CR included in PR rate; for (CR) complete tumor regression: included in PR rate; for % Partial Regressions: tumors averaged 100 mg at initiation, label subscript = mg/kg
Source text: Table 2 presents results one month after completing a q 2 week×3 schedule with Taxotere (TXT40 or TXT20; subscript=mg/kg), initiated in mice (10/grp) with subcutaneous advanced (100+mg) MDA-MB 468 breast cancer xenografts, are as follows: […]

[8] = Exp.3069F, tumors averaged 80 mg at start, three i.p. courses at 10-11 day intervals, after third course
[9] = 69 days after initiating therapy, listed as TXT20
[10] = 69 days after initiating therapy, listed as Taxotere40

Compound: NC(=O)c1ccc(N)nc1 [6-AN, 6-aminonicotinamide]
- tumor ATP levels 48 hours after treatment, % of normal (saline-treated control tumors) ([1]; 48 hours after administration): 69%
- tumor ATP level, % of normal [1]: 75%
- tumor ATP level, % of normal ([1]; listed as 6-Aminonicotinamide): 69%
- 6 HW % Saline Control ([1]; seventh series copy of Table 1, 6 hr): 77%
- 24 HR % Saline Control ([1]; seventh series copy of Table 1, 24 hr): 75%
- 48 HR % Saline Control ([1]; seventh series copy of Table 1, 48 hr): 69%
- 72HR % Saline Control ([1]; seventh series copy of Table 1, 72 hr): 169%
- 6 HR % Saline Control ([1]; tumor ATP 6 hr after i.p. injection, % of saline control): 77%
- 24 HR % Saline Control ([1]; tumor ATP 24 hr after i.p. injection, % of saline control): 75%
- 48 HR % Saline Control ([1]; tumor ATP 48 hr after i.p. injection, % of saline control): 69%
- 72HR % Saline Control ([1]; tumor ATP 72 hr after i.p. injection, % of saline control): 169%
- toxicity of in vivo schedules (tumor ATP levels; 6-AN 10 mg/kg q 3 hours x 3 on days 1,3,5 or continuous infusion): too toxic
- tumor ATP levels, % of normal (tumor ATP levels; single dose of 6-AN alone at 10 mg/kg, different tumor model): 75-80%
- dose of 6-AN determined to be safe in early clinical trials ([2]; for up to 28 consecutive days of treatment): 0.2 mg/kg/day
- clinical forms of 6-AN toxicity ([2]; three Phase I trials, daily administration): at low dose a mixed B complex vitamin deficiency, and at high dose CNS toxicity; also recorded: a low dose mixed B complex vitamin deficiency, and a high dose-dependent CNS toxicity
- % Weight Change ([3]; Exp.3069F, after third course): +6%
- Dead/Total ([3]; Exp.3069F, after third course): 3/10
- Regressions/Survivors ([3]; Exp.3069F, after third course): 0/7
- Av. Tumor W't (mg) [3, 8]: 1,765 mg
- effect on tumor growth / anticancer activity (in words) [3]: tumor growth was inhibited
- partial tumor regression (P.R.) rate ([3]; three pooled published experiments, MMPR, 6-AN, PALA alone and combined, P.R. = 50% or more tumor shrinkage, three courses, 1-week interval): no partial regressions

Compound: N.N.[Cl][Pt][Cl] [DDP, cisplatin]
- enhancement of anticancer agent activity by co-administered MAP (in words) [4]: significantly enhance response rates
- % Weight Change ([3]; Exp.3069F, after third course): −18%
- Dead/Total ([3]; Exp.3069F, after third course): 1/10
- Regressions/Survivors ([3]; Exp.3069F, after third course): 0/9
- Av. Tumor W't [3, 8]: 850 mg
- effect on tumor growth / anticancer activity (in words) [3]: limited to inhibition of tumor growth
- effect on tumor growth / anticancer activity (in words) ([3]; listed as cisplatin): significantly inhibited tumor growth
- Regressions/Survivors (%) ([3]; pooled five experiments, MAP ± DDP, one week after third course): produced no partial (i.e., greater than 50% shrinkage of tumors), or complete response
- MTD (maximum tolerated dose) of the agent alone ([3]; single agent, 10-11 day schedule, tumor-bearing CD8F1 mice): 7 mg/kg

Compound: O=c1[nH]cc(F)c(=O)[nH]1 [FUra, 5-fluorouracil]
- enhancement of anticancer agent activity by co-administered MAP (in words) [4]: significantly enhance response rates
- regressions of spontaneous autochthonous breast tumors, FUra alone at 75 mg/kg ([5]; 75 mg/kg): less than 5%
- PR rate, FUra alone at its MTD of 100 mg/kg ([5]; 100 mg/kg): ≤ 20%
- MTD (in vivo): 100 mg/kg

Compound: N[C@@H](CN(O)N=O)C(=O)O [L-alanosine]
- cell growth, % of control (mouse lymphoma cells): 59%
- intracellular tumor cell ATP pool, % of normal (control) (mouse lymphoma cells): 63%

Compound: O=C(O)C[C@H](NC(=O)CP(=O)(O)O)C(=O)O [PALA, N-(phosphonacetyl)-L-aspartic acid]
- effect on tumor ATP levels (in words) ([1]; low dose PALA): had no effect on ATP levels; also recorded: does not effect ATP depletion; also recorded: devoid of an ATP depleting effect; also recorded: does not affect ATP depletion; also recorded: neither reduces tumor ATP levels nor inhibits tumor growth
- effect on tumor growth / anticancer activity (in words) [3]: not antitumor active; also recorded: does not have anticancer activity

Compound: N[C@@H](Cc1ccc(N(CCCl)CCCl)cc1)C(=O)O [PAM, phenylalanine mustard]
- enhancement of anticancer agent activity by co-administered MAP (in words) [4]: significantly enhance response rates
- Partial Regressions (%) ([3]; Table 6, MAP ± PAM): did not produce tumor regressions

Compound: CC(=O)C(=O)O [Pyruvate, pyruvate]
- effect of pyruvate administration on treatment-induced weight loss / mortality [6]: diminishes the degree of weight loss
- effect of pyruvate administration on treatment-induced weight loss / mortality ([6]; listed as pyruvate): Unacceptable mortality (e.g., 30%) is prevented

Compound: CC(=O)O[C@H]1C(=O)[C@@]2(C)[C@H]([C@H](OC(=O)c3ccccc3)[C@]3(O)C[C@H](OC(=O)[C@H](O)[C@@H](NC(=O)c4ccccc4)c4ccccc4)C(C)=C1C3(C)C)[C@]1(OC(C)=O)CO[C@@H]1C[C@@H]2O [Taxol, paclitaxel]
- enhancement of anticancer agent activity by co-administered MAP (in words) [4]: significantly enhance response rates
- MTD (in vivo): 80 mg/kg
- PR/survivors (%) ([3]; Table 5, MAP ± taxol): no tumor regressions
- effect on tumor growth / anticancer activity (in words) [3]: statistically significant inhibition of tumor growth

Compound: CC(=O)O[C@@]12CO[C@@H]1C[C@H](O)[C@@]1(C)C(=O)[C@H](O)C3=C(C)[C@@H](OC(=O)[C@H](O)[C@@H](NC(=O)OC(C)(C)C)c4ccccc4)C[C@@](O)([C@@H](OC(=O)c4ccccc4)[C@H]21)C3(C)C [Taxotere, taxotere]
- enhancement of anticancer agent activity by co-administered MAP (in words) [4]: significantly enhance response rates
- PR (partial tumor regression) [7, 9]: 0%
- PR (partial tumor regression) [7, 10]: 60%
- Mortality ([7]; 69 days after initiating therapy, every 2 weeks x 3, 10-11 mice per group): 0%
- (CR) complete tumor regression [7, 9]: (0%)
- (CR) complete tumor regression [7, 10]: (10%)
- NR (no tumor regression) [7, 9]: 100%
- NR (no tumor regression) [7, 10]: 40%
- tumor regressions with the single agent ([7]; MDA-MB-468 tumor model described as very sensitive): 90-100%
- tumor regrowth beginning, days after the third and last injection ([7]; full (MTD) dose Taxotere, Group 1): 41 days
- % Tumors Progressing ([7]; treatment q 2 weeks x 3, progressing tumors larger than P.R. tumors and growing): 0%
- % Partial Regressions ([7]; treatment q 2 weeks x 3): 100%
- % Partial Regressions ([7]; treatment q 2 weeks x 3, listed as Taxotere40): 100%

Compound: O=P1(N(CCCl)CCCl)NCCCO1 (stereo not drawn) [cyclophosphamide]
- enhancement of anticancer agent activity by co-administered MAP (in words) [4]: significantly enhance response rates

Compound: COc1cccc2c1C(=O)c1c(O)c3c(c(O)c1C2=O)C[C@@](O)(C(=O)CO)C[C@@H]3O[C@H]1C[C@H](N)[C@H](O)[C@H](C)O1 [doxorubicin]
- enhancement of anticancer agent activity by co-administered MAP (in words) [4]: significantly enhance response rates

Compound: COc1cc([C@@H]2c3cc4c(cc3[C@@H](O[C@@H]3O[C@@H]5CO[C@@H](C)O[C@H]5[C@H](O)[C@H]3O)[C@H]3COC(=O)[C@H]23)OCO4)cc(OC)c1O [etoposide]
- enhancement of anticancer agent activity by co-administered MAP (in words) [4]: significantly enhance response rates

Compound: CO[C@@]12[C@H](COC(N)=O)C3=C(C(=O)C(C)=C(N)C3=O)N1C[C@@H]1N[C@@H]12 [mitomycin C]
- enhancement of anticancer agent activity by co-administered MAP (in words) [4]: significantly enhance response rates

From patent US20030139331A1, “Treatment of cancer by reduction of intracellular energy and pyrimidines” (priority 2000, published 2003)
